Data from ChEMBL document CHEMBL3880437, “Modulators of the prostacyclin (PGI2) receptor useful for the treatment of disorders related thereto” (2014).

How the values were obtained:
[1] = tested on: Platelet; assay: Inhibition of ADP-induced platelet aggregation in human platelet rich plasma pre-incubated for 1 min before ADP addition and measured 3 mins post ADP addition by aggregometry; format: functional
[2] = biological target: Prostacyclin receptor (Homo sapiens, UniProt P43119); assay: Agonist activity at human recombinant prostacyclin receptor expressed in CHO-K1 cells assessed as induction of cAMP accumulation incubated for 1 hr by HTRF assay; format: functional, cell-based
Chain of Prostacyclin receptor (P43119 whole entry): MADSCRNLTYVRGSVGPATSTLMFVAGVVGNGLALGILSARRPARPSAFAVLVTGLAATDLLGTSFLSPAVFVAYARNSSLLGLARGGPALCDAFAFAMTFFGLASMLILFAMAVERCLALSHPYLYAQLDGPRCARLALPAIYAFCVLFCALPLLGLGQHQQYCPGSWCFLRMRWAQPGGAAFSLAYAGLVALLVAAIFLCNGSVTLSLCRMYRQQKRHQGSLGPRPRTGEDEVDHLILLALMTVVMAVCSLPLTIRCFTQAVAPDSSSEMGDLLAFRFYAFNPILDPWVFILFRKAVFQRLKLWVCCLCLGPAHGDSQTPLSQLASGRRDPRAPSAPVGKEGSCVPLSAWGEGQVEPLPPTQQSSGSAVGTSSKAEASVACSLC

SMILES | IC50 [1] [nM] | EC50 [2] [nM]
O=C(O)COC[C@H]1CC[C@H](COC(=O)N(c2ccccc2)c2ccccc2)CC1 | 10.5 to 1590 | 2.7 to 2650
Cc1ccc(N(C(=O)OC[C@H]2CC[C@H](COCC(=O)O)CC2)c2cccc(F)c2)s1 | 10.5 to 1590 | –
Cc1cccc(N(C(=O)OC[C@H]2CC[C@H](COCC(=O)O)CC2)c2ccccc2)c1 | 10.5 to 1590 | 2.7 to 2650
O=C(O)COC[C@H]1CC[C@H](COC(=O)N(c2cccc(F)c2)c2ccc(Cl)c(F)c2)CC1 | 10.5 to 1590 | 2.7 to 2650
COc1ccc(N(C(=O)OC[C@H]2CC[C@H](COCC(=O)O)CC2)c2ccccc2)cc1 | 10.5 to 1590 | 2.7 to 2650
O=C(O)COC[C@H]1CC[C@H](COC(=O)N(c2cccc(F)c2)c2ccc(F)c(F)c2)CC1 | 10.5 to 1590 | 2.7 to 2650
Cc1cccc(N(C(=O)NC[C@H]2CC[C@H](COCC(=O)O)CC2)c2cccc(C)c2)c1 | 10.5 to 1590 | 2.7 to 2650
O=C(O)COC[C@H]1CC[C@H](COC(=O)N(c2ccc(F)cc2)c2cccc(Cl)c2)CC1 | 10.5 to 1590 | 2.7 to 2650
O=C(O)COC[C@H]1CC[C@H](COC(=O)N(c2ccccc2)c2ccc(Cl)c(F)c2)CC1 | 10.5 to 1590 | 2.7 to 2650
O=C(O)COC[C@H]1CC[C@H](COC(=O)N(c2cccc(F)c2)c2ccc(F)c(Cl)c2)CC1 | 10.5 to 1590 | 2.7 to 2650
Cc1ccc(N(C(=O)OC[C@H]2CC[C@H](COCC(=O)O)CC2)c2ccc(F)cc2)s1 | 10.5 to 1590 | 2.7 to 2650
CCOc1ccc(N(C(=O)OC[C@H]2CC[C@H](COCC(=O)O)CC2)c2cccc(F)c2)cc1 | 10.5 to 1590 | 2.7 to 2650
O=C(O)COC[C@H]1CC[C@@H](CNC(=O)N(c2ccccc2)c2ccccc2)CC1 | 10.5 to 1590 | –
COc1cccc(N(C(=O)NC[C@H]2CC[C@H](COCC(=O)O)CC2)c2ccccc2)c1F | 10.5 to 1590 | 2.7 to 2650
Cc1ccc(N(C(=O)OC[C@H]2CC[C@H](COCC(=O)O)CC2)c2ccccc2)cc1F | 10.5 to 1590 | 2.7 to 2650
CN(C(=O)OC[C@H]1CC[C@H](COCC(=O)O)CC1)C(c1ccccc1)c1ccccc1 | 10.5 to 1590 | 2.7 to 2650
O=C(O)COC[C@H]1CC[C@@H](COC(=O)N(c2ccccc2)c2ccc(Cl)cc2)CC1 | 10.5 to 1590 | –

SMILES | IC50 [1] [nM] | EC50 [2] [nM]
O=C(O)COC[C@H]1CC[C@H](COC(=O)N(c2ccccc2)c2cncc(F)c2)CC1 | 10.5 to 1590 | 2.7 to 2650
O=C(O)COC[C@H]1CC[C@H](COC(=O)N(c2cccc(F)c2)c2cc(F)cc(F)c2)CC1 | 10.5 to 1590 | 2.7 to 2650
Cc1ccc(N(C(=O)OC[C@H]2CC[C@H](COCC(=O)O)CC2)c2ccccc2)cc1 | 10.5 to 1590 | 2.7 to 2650
O=C(O)COC[C@H]1CC[C@H](CNC(=O)N(c2ccccc2)c2ccc(F)c(F)c2)CC1 | 10.5 to 1590 | 2.7 to 2650
O=C(O)COC[C@H]1CC[C@H](COC(=O)N(c2ccccc2)c2ccc(C(F)(F)F)cn2)CC1 | 10.5 to 1590 | 2.7 to 2650
COc1cccc(N(C(=O)NC[C@H]2CC[C@H](COCC(=O)O)CC2)c2ccccc2)c1 | 10.5 to 1590 | 2.7 to 2650
O=C(O)CNC(=O)COC[C@H]1CC[C@H](COC(=O)N(c2ccccc2)c2ccc(Cl)cc2)CC1 | 10.5 to 1590 | –
O=C(O)COC[C@H]1CC[C@H](COC(=O)N(c2cccc(F)c2)c2cccc(Cl)c2)CC1 | 10.5 to 1590 | 2.7 to 2650
COc1cccc(N(C(=O)OC[C@H]2CC[C@H](COCC(=O)O)CC2)c2ccccc2)c1 | 10.5 to 1590 | 2.7 to 2650
O=C(O)COC[C@H]1CC[C@@H](COC(=O)N(c2ccccc2)c2ccccc2)CC1 | 10.5 to 1590 | 2.7 to 2650
O=C(O)COC[C@H]1CC[C@H](COC(=O)N(c2ccccc2)c2ccc(F)c(F)c2)CC1 | 10.5 to 1590 | 2.7 to 2650
COc1cccc(N(C(=O)OC[C@H]2CC[C@@H](COCC(=O)O)CC2)c2ccccc2)c1 | 10.5 to 1590 | 2.7 to 2650
O=C(O)COC[C@H]1CC[C@H](COC(=O)N(c2ccccc2)c2cccnc2)CC1 | 10.5 to 1590 | 2.7 to 2650
Cc1cncc(N(C(=O)OC[C@H]2CC[C@H](COCC(=O)O)CC2)c2ccccc2)c1 | 10.5 to 1590 | 2.7 to 2650
Cc1cccc(N(C(=O)NC[C@H]2CC[C@H](COCC(=O)O)CC2)c2ccccc2)c1 | 10.5 to 1590 | 2.7 to 2650
O=C(O)COC[C@H]1CC[C@H](COC(=O)N(c2ccccc2)c2ccccn2)CC1 | 10.5 to 1590 | 2.7 to 2650
O=C(O)COC[C@H]1CC[C@H](CNC(=O)N(c2ccccc2)c2ccc(Cl)cc2)CC1 | 10.5 to 1590 | 2.7 to 2650

Other lines, results leading:

IC50 [1] [nM] | EC50 [2] [nM] | SMILES
10.5 to 1590 | – | O=C(O)COC[C@H]1CC[C@H](COC(=O)N(c2ccccc2)c2cccc(Cl)c2)CC1
10.5 to 1590 | 2.7 to 2650 | O=C(O)COC[C@H]1CC[C@H](COC(=O)N(c2ccccc2)c2ccnc(F)c2)CC1
10.5 to 1590 | 2.7 to 2650 | O=C(O)COC[C@H]1CC[C@H](CNC(=O)N(c2ccccc2)c2cccc(C(F)(F)F)c2)CC1
10.5 to 1590 | 2.7 to 2650 | CCCN(C(=O)OC[C@H]1CC[C@H](COCC(=O)O)CC1)C(c1ccccc1)c1ccccc1
10.5 to 1590 | 2.7 to 2650 | O=C(O)COC[C@H]1CC[C@H](CNC(=O)N(c2ccccc2)c2ccccc2F)CC1
10.5 to 1590 | 2.7 to 2650 | O=C(O)COC[C@H]1CC[C@H](CNC(=O)NC(c2ccccc2)c2ccccc2)CC1
10.5 to 1590 | 2.7 to 2650 | Cc1cccc(N(C(=O)OC[C@H]2CC[C@H](COCC(=O)O)CC2)c2ccc(F)cc2)c1
10.5 to 1590 | 2.7 to 2650 | O=C(O)COC[C@H]1CC[C@H](COC(=O)N(c2ccccc2)c2cccc(F)c2F)CC1
10.5 to 1590 | 2.7 to 2650 | O=C(O)COC[C@H]1CC[C@H](COC(=O)N(c2ccccc2)c2ccc(F)cn2)CC1
10.5 to 1590 | 2.7 to 2650 | COc1ccccc1N(C(=O)OC[C@H]1CC[C@@H](COCC(=O)O)CC1)c1ccccc1
10.5 to 1590 | 2.7 to 2650 | O=C(O)COC[C@H]1CC[C@H](CNC(=O)N(c2ccccc2)c2cccc(F)c2F)CC1
10.5 to 1590 | – | O=C(O)COC[C@H]1CC[C@@H](COC(=O)N(c2ccccc2)c2ccc(F)cc2)CC1
10.5 to 1590 | 2.7 to 2650 | O=C(O)COC[C@H]1CC[C@H](COC(=O)N(c2ccc(F)cc2)c2cccc(F)c2)CC1
10.5 to 1590 | 2.7 to 2650 | O=C(O)COC[C@H]1CC[C@H](COC(=O)N(c2ccc(O)cc2)c2ccc(Cl)cc2)CC1
10.5 to 1590 | 2.7 to 2650 | O=C(O)COC[C@H]1CC[C@H](COC(=O)N(c2ccc(F)cc2)c2ccc(Cl)cc2)CC1
10.5 to 1590 | 2.7 to 2650 | O=C(O)COC[C@H]1CC[C@H](CNC(=O)N(c2ccccc2)c2cccc(F)c2)CC1
10.5 to 1590 | 2.7 to 2650 | O=C(O)COC[C@H]1CC[C@H](COC(=O)N(c2ccc(Cl)cc2)c2cccc(F)c2)CC1
10.5 to 1590 | 2.7 to 2650 | Cc1ccc(N(C(=O)NC[C@H]2CC[C@H](COCC(=O)O)CC2)c2ccccc2)cc1
10.5 to 1590 | 2.7 to 2650 | O=C(O)COC[C@H]1CC[C@H](COC(=O)N(c2cccnc2)c2cccc(F)c2)CC1
10.5 to 1590 | 2.7 to 2650 | O=C(O)COC[C@H]1CC[C@H](COC(=O)N(c2cccc(F)c2)c2cccc(OC(F)(F)F)c2)CC1
10.5 to 1590 | 2.7 to 2650 | CN(C(=O)NC[C@H]1CC[C@H](COCC(=O)O)CC1)C(c1ccccc1)c1ccccc1
10.5 to 1590 | 2.7 to 2650 | O=C(O)COC[C@H]1CC[C@H](COC(=O)N(c2ccc(F)cc2)c2cccnc2)CC1
10.5 to 1590 | – | O=C(O)COC[C@H]1CC[C@H](CNC(=O)N(c2ccccc2)c2cccc(Cl)c2)CC1
10.5 to 1590 | 2.7 to 2650 | CN(C[C@H]1CC[C@H](COCC(=O)O)CC1)C(=O)N(C)C(c1ccccc1)c1ccccc1
10.5 to 1590 | 2.7 to 2650 | Cc1ccc(N(C(=O)OC[C@H]2CC[C@H](COCC(=O)O)CC2)c2cccc(F)c2)cc1
10.5 to 1590 | 2.7 to 2650 | O=C(O)COC[C@H]1CC[C@H](CNC(=O)N(c2ccccc2)c2cc(F)cc(Cl)c2)CC1
10.5 to 1590 | 2.7 to 2650 | O=C(O)COC[C@H]1CC[C@H](COC(=O)N(c2ccccc2)c2ccc(F)nc2)CC1
10.5 to 1590 | – | O=C(O)COC[C@H]1CC[C@@H](COC(=O)N(c2ccccc2)c2cccc(F)c2)CC1
10.5 to 1590 | – | O=C(O)COC[C@H]1CC[C@H](COC(=O)N(c2ccccc2)c2ccc(F)cc2)CC1
10.5 to 1590 | – | COc1ccc(N(C(=O)OC[C@H]2CC[C@H](COCC(=O)O)CC2)c2cccc(F)c2)cc1
